The assay has as its system P. yoelii liver stage in HepG2-A16-CD81EGFP, imaging. Briefly: exo-erythrocytic parasite development inhibition – imaging, Malaria Box, P. yoelii, HepG2-A16-CD81EGFP, dose response (AID 602156).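 Note: infected cells exposed to compound for 48 hours before fixation.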

pIC50: −log10 of the molar value. Where “and” joins values, the source holds several entries; their conditions need not be identical. Equal entries are not always repeated. Calls of active or inactive are those of the source. The rule behind the calls is not given here.

As for `Cc1ccc(Nc2nc3c(N)nnc(N)c3nc2Nc2ccc(C)cc2)cc1`, the negative-log IC50 (pIC50) (usually the negative decadic logarithm of the IC50, by convention in mol/L) is 6.31. With `CCCN[P+](CC(C)C)(NCCC)NCCC`, the pIC50 is 6.55. `Oc1cccc2ccc(Nc3ccccn3)nc12`: the negative-log IC50 (pIC50) was 6.85. For the molecule `CCSc1ccc2ccccc2[n+]1CC`, the IC50 (as a rule, the point on the concentration scale where inhibition reaches its midpoint) was > 10000 nM (inactive). Regarding `O=C(Nc1c2ccccc2nc2ccccc12)c1cc(Cl)ccc1O`, the pIC50 was 6.74. Consider `CC1(C)N=C(N)N=C(N)N1c1ccc(I)cc1`, for which the pIC50 is 8.00. For the molecule `CCCCOc1ccc(C2C3CCCC=C3C(C#N)=C(N)C2(C#N)C#N)cc1` (configuration not stated), the IC50 is > 10000 nM (inactive). Take `CCc1cc2c(cc1-c1csc(N=C(N)N)n1)C(C)(C)CCC2(C)C`: the negative logarithm of the IC50 (pIC50) was 5.54.

Take `COc1cccc(NC(=O)Cn2c(C)c(C#N)c3ccccc32)c1`: the IC50 is > 9960 nM (inactive). As for `Clc1ncnc2ncn(Cc3ccccc3)c12`, the IC50 was > 10000 nM (inactive). Consider `CCOC(=O)CN(N=O)C1=C(N2CC2)C(=O)c2ccccc2C1=O`, for which the negative logarithm of the IC50 (pIC50) is 6.32. The same measure, in the same setting: to `CCOc1ccc(Nc2nc(NCc3ccco3)c3ccccc3n2)cc1` belongs 6.98. Regarding `COc1ccc2nc(-c3ccccc3)cc(NCCN(C)C)c2c1`, the pIC50 was 6.24. Take `c1ccc2c(NCCc3cnc[nH]3)c3ccccc3nc2c1`: the pIC50 is 6.15. On to `c1ccc(CSc2scnc2[P+](c2ccccc2)(c2ccccc2)c2ccccc2)cc1`, for which the pIC50 is 7.16. Consider `O=C(O)Cn1cnc2nc3n(c2c1=O)CCC3`, for which the IC50 is > 765 nM (inactive). Regarding `COC(=O)c1cc(NC(=S)NC(=O)c2c(OC)cccc2OC)cc(C(=O)OC)c1`, the IC50 is > 10000 nM (inactive). With `CC(=O)N(C1=C(N2CCOCC2)C(=O)c2ccccc2C1=O)c1cccc(Cl)c1`, the negative-log IC50 (pIC50) is 6.13.

In the case of `Cc1ccc(C2Sc3ccccc3NC3=C2C(=O)c2ccccc23)cc1` (configuration not stated), the pIC50 was 6.56. On to `COc1cccc(CNC(=O)C2CNCC2c2ccc(C(F)(F)F)cc2)c1` (configuration not stated), for which the pIC50 was 6.07. Regarding `Cc1ccc(N2C(N)=NC(N)=NC2(C)C)cc1`, the pIC50 was 8.00. As to `CCC[n+]1cccc2ccc3cccnc3c21`, the pIC50 was 6.04. On the same count and under the same terms, to `CCCCCCCc1cc(O)c2c3c(c(=O)oc2c1)CCC(C)C3` (configuration not stated) belongs 6.61. As to `O=C(Nc1ccc(-c2nc3ccc(NC(=O)c4cccc([N+](=O)[O-])c4)cc3[nH]2)cc1)c1cccc([N+](=O)[O-])c1`, the IC50 was > 944 nM (inactive). Regarding `COc1ccc(Nc2cc(C)nc(NCc3ccccc3)n2)cc1`, the pIC50 was 6.20.

Take `CCCCc1c(C)[nH]c2ccc(Br)cc2c1=O`: the negative logarithm of the IC50 (pIC50) was 7.19. Consider `CC1(C)N=C(N)N=C(N)N1c1ccc(F)cc1`, for which the pIC50 was 7.72. Consider `Cc1cccc(C(=O)NCc2n[nH]c(=S)n2-c2cccc(C(F)(F)F)c2)c1`, for which the IC50 was > 10000 nM (inactive). For `CCN(CC)c1ccc(N=Cc2ccc(Sc3nc4ccccc4s3)o2)cc1`, the IC50 was > 10000 nM (inactive).

Consider `CCCN(CCC)CCCNc1ccc(C(=O)Nc2ccc(C)c(F)c2)cc1[N+](=O)[O-]`, for which the negative-log IC50 (pIC50) was 6.19.

In the case of `CCOC(=O)C1=C(C)NC2=C(C(=O)C(C(=O)OCC)C(c3ccccc3OC)C2)C1c1cc(OC)c(OC)c(OC)c1` (configuration not stated), the negative logarithm of the IC50 (pIC50) was 6.29. Turning to `FC(F)(F)c1ccccc1NC(=S)N1CCCN(c2nc3ccc(Cl)cc3s2)CC1`, the pIC50 is 5.79. For the molecule `CCC(C)Nc1nc(NC(C)CC)nc(N2CCCCCC2)n1` (configuration not stated), the negative logarithm of the IC50 (pIC50) is 6.52. For `CCc1c(C)c(C#N)c2nc3ccccc3n2c1NCc1ccccc1`, the IC50 was > 9600 nM (inactive). `Cc1[nH]c2ccccc2c(=O)c1Br`: the pIC50 is 6.67.

For `c1ccc(OCCOc2ccc(Nc3c4ccccc4nc4ccccc34)cc2)cc1`, the pIC50 was 6.25. For `Fc1ccc(-c2c[n+]3c(n2-c2ccccc2)SCC3)cc1`, the IC50 is > 4300 nM (inactive). For `O=C(NC(=C(Cl)Cl)[P+](c1ccccc1)(c1ccccc1)c1ccccc1)c1ccc(F)cc1`, the pIC50 is 7.84. Take `Cc1oc2c(c1C(=O)NCC1CCCO1)C(=O)c1ccccc1C2=O` (configuration not stated): the pIC50 was 6.72. `c1ccc(CNc2nc(Nc3ccccc3)nc3ccccc23)cc1`: the pIC50 was 6.82. Same read-out and setting: to `C/C=C/[P+](c1ccccc1)(c1ccccc1)c1ccccc1` belongs 7.31. `COc1ccc2[nH]c(=O)c(CN(C(=S)Nc3ccccc3OC)C3CCCC3)cc2c1`: the IC50 was > 9740 nM (inactive). As for `O=C(NC1CC1)c1ccc(CSCc2ccccc2Cl)o1`, the pIC50 was 6.85. Same read-out and setting: to `CCCCN(CCCC)[P+](N(CCCC)CCCC)(N(CCCC)CCCC)N(CCCC)CCCC` belongs 7.94. On to `COc1ccc(-c2n(CC(=O)OC3CC(C)CCC3C(C)C)c3ccccc3[n+]2C)cc1` (configuration not stated), for which the pIC50 was 6.81. As to `O=C(Nc1ccc(-c2ccc(Cl)cc2)cc1)c1cccs1`, the pIC50 was 6.82. On to `O=C(c1cc2nc(-c3ccccc3)cc(C(F)(F)F)n2n1)N1CCN(Cc2ccccc2)CC1`, for which the IC50 is > 10000 nM (inactive).

With `CCOC(=O)c1ccc(OCC2c3cc(OC)c(OC)cc3CCN2C(=O)c2ccc([N+](=O)[O-])cc2)cc1` (configuration not stated), the IC50 was > 10000 nM (inactive). With `Fc1ccc2nc(Nc3nc(-c4ccccn4)cs3)sc2c1`, the pIC50 was 7.36. On to `O=C1N(Cc2cc3ccccc3s2)CC2CN(Cc3ccsc3)CCN12` (configuration not stated), for which the negative-log IC50 (pIC50) is 7.59. As to `CCOC(=O)C1(CC)CC(C)(C(=O)C[n+]2cccc(Br)c2)OC1=O` (configuration not stated), the IC50 is > 10000 nM (inactive).

`CCCc1nc2ccc(NC(=O)c3ccccc3F)cc2c(=O)n1Cc1ccc(-c2ccccc2)cc1`: the pIC50 was 5.76. On the same count and under the same terms, to `Cc1[nH]c2ccccc2c(=O)c1CC=C(Cl)Cl` belongs 6.89. Take `CC(Oc1ccc(Cl)cc1Cl)c1nc(-c2ccc(NC(=O)c3ccco3)cc2)no1` (configuration not stated): the negative-log IC50 (pIC50) was 6.81.

As to `Oc1c(CN2CCN(Cc3ccc4cccnc4c3O)CC2)ccc2cccnc12`, the pIC50 is 7.02.

With `Cc1ccc(-c2cc3nc4c(c(=O)n3[nH]2)CCCC4)cc1`, the negative logarithm of the IC50 (pIC50) was 7.12. Take `COc1cc(C(=O)NCCc2ccccn2)ccc1OC1CCN(CC(c2ccccc2)c2ccccc2)CC1`: the pIC50 was 5.89. Turning to `CCOC(=O)c1c[nH]c2c3c(ccc2c1=O)CCCC3`, the pIC50 was 7.97. `CCOC(=O)c1cnc2ccc(OC)cc2c1Cl`: the negative-log IC50 (pIC50) was 6.39.

In the case of `CCCC1(CCC)NC(=S)N(c2ccc(C)c(C)c2)N1`, the IC50 is > 10000 nM (inactive). Take `Cc1ccc2[nH]c(C)c(Br)c(=O)c2c1`: the negative-log IC50 (pIC50) is 6.60. For `CCCCn1c(N=Nc2c(O)[nH]c3ccccc23)nc2c1c(=O)[nH]c(=O)n2C`, the IC50 was > 10000 nM (inactive). As to `CCCCc1c(C)[nH]c2c(OC)cccc2c1=O`, the negative logarithm of the IC50 (pIC50) was 6.25. Turning to `COC(OC)C(C)=NNC(N)=S`, the pIC50 was 8.31. Still for that read-out and setting: to `Fc1ccc(Nc2nc(NCc3ccccc3)c3ccccc3n2)cc1` belongs 5.42. On the same count and under the same terms, to `Cc1ccc2cc(C)c(Nc3ccc(Cl)cc3)nc2c1` belongs 6.83. For the molecule `Nc1nonc1-n1nnc(C(=O)NN=Cc2ccc(F)c(Br)c2)c1-c1ccc([N+](=O)[O-])cc1`, the IC50 was > 10000 nM (inactive). In the case of `C=CC[N+]1(CC#Cc2cccc3ccccc23)CCCCC1`, the negative logarithm of the IC50 (pIC50) was 6.04. With `Cc1cc(OC(C)C(=O)N2CCc3ccccc32)ccc1Cl` (configuration not stated), the pIC50 was 6.11. With `COc1ccc(C2CC(=O)C3=C(C2)NC(C)=C(C(=O)OC2CCCC2)C3c2cccc(C)c2)cc1OC` (configuration not stated), the negative-log IC50 (pIC50) was 6.11. As for `N#Cc1c2c(c(N3CCN(c4ccccn4)CC3)n3c1nc1ccccc13)CCC2`, the IC50 is > 10000 nM (inactive).

`CCCCCCCCn1c(C)[n+](C)c2cc(Cl)c(Cl)cc21`: the pIC50 was 6.38. The same measure, in the same setting: to `CCOc1ccc(N2C(N)=NC(N)=NC2(C)C)cc1` belongs 7.33; to `CC[n+]1c(C=C2C=Cc3cc(C)ccc3N2C)sc(C)c1C`, 7.95.

For `CCCCNC(=O)C1CCC(CN(Cc2c(Cl)cccc2Cl)S(=O)(=O)c2ccc(Br)cc2)CC1` (configuration not stated), the pIC50 is 6.91.

Regarding `Cc1cccc2c1[nH]c1nc(SCC(C)C)nnc12`, the negative logarithm of the IC50 (pIC50) was 6.82. Consider `COc1cccc(NC(=O)c2ccc(NCCCN3CC(C)CC(C)C3)c([N+](=O)[O-])c2)c1` (configuration not stated), for which the negative logarithm of the IC50 (pIC50) is 6.36. For `COc1ccc2[nH]c3ccccc3c(=O)c2c1`, the negative-log IC50 (pIC50) was 6.87. Consider `CCCCOc1ccc(N(C(C)=O)C2=C(N3CCOCC3)C(=O)c3ccccc3C2=O)cc1`, for which the pIC50 was 5.75. `CC[n+]1c(C=C2C=C(C)OC(C)=C2)sc2ccccc21`: the pIC50 is 6.61. Consider `COC(=O)C1=C(C)NC2=C(C(=O)CC(c3ccccc3Cl)C2)C1c1ccc([N+](=O)[O-])cc1` (configuration not stated), for which the negative-log IC50 (pIC50) was 6.07. On the same count and under the same terms, to `CCCCc1c(CCC)c(=N)c2ccccc2n1C` belongs 6.61; to `CCN1CCN(c2cc(C)c3cc(NC(=O)c4cc(OC)cc(OC)c4)ccc3n2)CC1`, 5.43. In the case of `Cc1ccc(NC(=O)C2C3C=CC4(O3)C2C(=O)N(CCCN2CCOCC2)C4C(=O)NC2CCCC(C)C2C)cc1Cl` (configuration not stated), the IC50 is > 10000 nM (inactive). For the molecule `CCCCCCOc1ccc(NC(=O)c2cccs2)cc1`, the negative logarithm of the IC50 (pIC50) was 6.86. In the case of `CC(C)(C)c1ccc(Oc2ccc(N3C(=O)C4CC=CCC4C3=O)cc2)cc1` (configuration not stated), the IC50 was > 10000 nM (inactive). On to `CCOc1ccc(N(C(=O)C2COc3ccccc3O2)C(C(=O)NC2CCCCC2)c2cn(C)nc2C)cc1` (configuration not stated), for which the IC50 was > 10000 nM (inactive). Take `CCCC[n+]1ccccc1C=C1Sc2ccccc2N1CC`: the pIC50 is 7.96.

On to `CC(=O)N(C)C1=C(N2CCOCC2)C(=O)c2ccccc2C1=O`, for which the pIC50 was 6.64. In the case of `Cc1c(C#N)c2ccccc2n1CC(=O)Nc1ccc(Br)cc1`, the IC50 is > 10000 nM (inactive). Turning to `CCOC(=O)c1ccc2[nH]c(-c3ccccc3)cc(=O)c2c1`, the pIC50 is 7.70.

Turning to `O=C(Nc1ccc(-c2nc3ccc(NC(=O)c4ccc(Br)o4)cc3[nH]2)cc1)c1ccc(Br)o1`, the negative-log IC50 (pIC50) is 6.09. Still for that read-out and setting: to `CCOC(=O)c1c[nH]c2ccc(OC)cc2c1=O` belongs 6.53 and 6.87. With `CCCCCc1c(C)c(C#N)c2nc3ccccc3n2c1NCCN(CC)CC`, the negative logarithm of the IC50 (pIC50) was 6.15. On to `Cc1ccc(S(=O)(=O)Nc2nc3n(n2)C(c2ccccc2)C=C(c2ccccc2)N3)cc1` (configuration not stated), for which the IC50 was > 10000 nM (inactive). Consider `Cc1nc([P+](c2ccccc2)(c2ccccc2)c2ccccc2)c(N2CCCCC2)o1`, for which the negative-log IC50 (pIC50) was 7.08. Regarding `CN(Cc1ccccc1)C(=O)CSc1nc(NCc2ccccc2)c2ccccc2n1`, the pIC50 is 8.15.

The record behind these values is PubChem BioAssay AID602156 (GNF / Scripps Winzeler lab, 2011).
